In article PMC7707423 (Acta biomaterialia, 2017):

Assays:
IGFBP-5 (Homo sapiens) = IGFBP-5 (Homo sapiens) (UniProt P24593); conditions: cited from earlier work
[1] = target: mini-IGFBP-5 binding pocket (Homo sapiens) (UniProt P24593); conditions: cited from earlier work
chondrocytes [2] = test: GAG synthesis by encapsulated chondrocytes; assay type: cell-based, Bos taurus; conditions: control (empty vector) chondrocytes; 0-100 μM KPLHALL, 30 days
chondrocytes [3] = test: Hydroxyproline; assay type: cell-based, Bos taurus; conditions: 10, 33 and 100 μM binding sites; p<0.001 by 2-way ANOVA
IGF-I [4] = target: IGF-I (Homo sapiens, UniProt P05019); test: Surface plasmon resonance, IGF-I binding to alginate materials; conditions: SPR
IGF-I (Homo sapiens, UniProt P05019), sequence (P05019 49-118 limits assumed): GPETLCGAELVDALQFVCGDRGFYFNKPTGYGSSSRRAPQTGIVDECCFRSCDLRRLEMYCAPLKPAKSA

type II collagen = test: Immunohistochemistry of constructs for type II collagen; assay type: cell-based, Bos taurus; conditions: particularly at higher concentrations of KPLHALL
IGF-I [5] = test: Immunohistochemistry / retention of IGF-I in chondrocyte constructs; assay type: cell-based, Bos taurus; conditions: 100 μM of binding sites

IGF-I (from UniProt P05019), sequence (P05019 49-118): as the sequence (P05019 49-118 limits assumed) above
IGFBP-5 (Homo sapiens), sequence (P24593 21-272): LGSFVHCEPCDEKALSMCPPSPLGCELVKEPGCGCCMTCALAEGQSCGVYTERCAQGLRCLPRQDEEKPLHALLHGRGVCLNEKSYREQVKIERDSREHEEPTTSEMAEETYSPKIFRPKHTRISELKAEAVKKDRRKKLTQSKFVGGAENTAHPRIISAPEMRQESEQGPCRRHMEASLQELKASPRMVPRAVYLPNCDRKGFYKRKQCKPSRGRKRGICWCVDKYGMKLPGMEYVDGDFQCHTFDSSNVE
mini-IGFBP-5 binding pocket (Homo sapiens), sequence (P24593 60-112): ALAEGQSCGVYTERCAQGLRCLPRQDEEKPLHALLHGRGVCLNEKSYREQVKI

GAG synthesis enhancement (maximum of steady state, normalized to alginate 0 μM) (chondrocytes [2]) [fold] | KD shift of KPLHALL alginate compared to alginate (IGF-I [4]; KD 50 nM vs 513 nM) [times] | enhancement of binding affinity for IGF-I by KPLHALL modification (IGF-I [4]; vs unmodified alginate) | Substance | Kd (IGFBP-5 (Homo sapiens)) [nM] | Kd [1] [nM] | effect on HYPRO of binding-site concentration (chondrocytes [3]) | type II collagen immunostaining at day 30 (type II collagen) | IGF-I immunostaining at day 30 (IGF-I [5])
 |  |  | IGF-I (from UniProt P05019) | 3.7 | 37 |  |  | 
1.6 | 10 | more than 10 fold | GGG-KPLALL (KPLHALL) [KPLHALL alginate] |  |  | greater in concentrations of 10, 33 and 100 μM binding sites | robust staining for type II collagen | highest immunolocalization of IGF-I
